Where two headings read alike, the source gives them in different places.
How the values were obtained:
[1] = molecular target: TRAIL-R2-Fc (Homo sapiens) (UniProt O14763); test: SPR; details: cited from earlier work
HCMV UL141 [2] = molecular target: T1, HCMV UL141 (Human cytomegalovirus, UniProt Q6RJQ3); test: biochemical; type: binding
T1 construct: we expressed and purified the full-length recombinant UL141 (amino acids 30–300); made in house
T1 sequence (Q6RJQ3 whole entry, looked up): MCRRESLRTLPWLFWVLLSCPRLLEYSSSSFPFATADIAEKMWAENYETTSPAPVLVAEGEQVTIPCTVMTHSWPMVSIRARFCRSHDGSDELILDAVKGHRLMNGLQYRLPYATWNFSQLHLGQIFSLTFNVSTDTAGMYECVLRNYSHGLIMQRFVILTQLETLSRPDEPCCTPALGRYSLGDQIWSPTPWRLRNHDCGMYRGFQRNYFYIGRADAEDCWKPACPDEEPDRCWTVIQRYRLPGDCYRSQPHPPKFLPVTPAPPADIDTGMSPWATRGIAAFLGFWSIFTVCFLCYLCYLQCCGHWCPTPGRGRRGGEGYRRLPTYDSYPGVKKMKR
Method: (§1) To prepare HCMV UL141 for binding studies, biotinylation was performed using the BiotinTag Micro Biotinylation Kit (Sigma-Aldrich). Purified UL141 protein (50 μg in 50 μl) was mixed with 50 μl of BiotinTag reaction buffer provided in the kit. Sulfo-NHS-Biotin reagent was freshly prepared by dissolving the vial contents in 1 ml of sterile water. A calculated volume of the biotin reagent was added to achieve a 20:1 M excess of biotin to protein. The reaction mixture was incubated for 30 min at room temperature with gentle mixing to ensure efficient labeling. Following incubation, unreacted biotin was removed using the desalting column included in the kit. The biotinylated UL141 protein was eluted in 50 mM Hepes, pH 7.5, 150 mM NaCl. Biotin incorporation was verified using a colorimetric biotin quantification assay (e.g., HABA assay). The biotinylated protein was then quantified spectrophotometrically using a NanoDrop instrument and concentrated to the desired level for Biacore or ELISA binding studies. The biotinylated protein was stored at 4 °C for short-term use or −80 °C for long-term storage to maintain stability.
(§2) The sensor surface of an SA chip (Cytiva) was preconditioned with HBS-EP buffer (10 mM Hepes, 150 mM NaCl, 3 mM EDTA, 0.005% Tween-20) to stabilize the baseline and remove any loosely bound streptavidin. Before use, the buffer was filtered through a 0.2 μm polystyrene filter and degassed under vacuum for 10 min to eliminate air bubbles. Biotinylated HCMV UL141 was immobilized on the SA chip, maintaining biotinylation at 0.5 to 1.5 mol per mole of protein. Excess biotin was removed via gel filtration. UL141 was injected at 30 μl/min, achieving maximum immobilization (4000–6000 RU), followed by washing with running buffer. Residual unbound proteins were optionally removed with a 2 M NaCl pulse. To ensure optimal SPR signal detection, which depends on the analyte mass bound to the ligand, relatively high amounts of ligand were immobilized on the sensor chip to achieve a significant response signal upon binding of the small compound. […] Regeneration of the chip surface, when necessary, was performed using 5 mM NaOH. Control injections of zero concentrations and duplicate injections of selected concentrations were included to validate surface regeneration. […]

UL141 = details: cited from earlier work; for Kd: UL141 (ectodomain) in solution
[3] = tested on: human foreskin fibroblasts HFF-BJ (ATCC CRL-2522 cells); test: MTT cytotoxicity / cell viability assay; type: cell-based; details: 0.1 to 50 μM, 72 h
From the text: Cell viability as visualized by fold change of formazan-positive cells normalized to the untreated control and DMSO. Viability reduced below 40% represents the cytotoxic zone, below the dotted line in each plot. The number of biological replicates is indicated.
Human foreskin fibroblasts (HFF), a type of primary fibroblast derived from neonatal foreskin tissue, were chosen for this bioassay due to their distinct advantages in studies involving HCMV. For instance, the HHF cells provide a relevant and effective platform due to their unique susceptibility to HCMV infection, ability to mimic human immune responses, and relevance to clinical scenarios. […] HFF cells were incubated with each compound at concentrations ranging from 0.1 to 50 μM and any possible cytotoxic effect was monitored for 72 h. Tested compounds were dissolved in dimethyl sulfoxide (DMSO). […] The cytotoxic effect (CTE) is represented here as the concentration that causes a reduction of more than 40% in the number of viable cells.
Cells were seeded in a 96-well plate at a density of 1 × 10^4 cells per well for the measurement of cytotoxicity of the compounds (without UVA irradiation). […] Cells after treatment were incubated for […]. Untreated cells were considered negative control, and DMSO-treated cells (at appropriate concentration) were considered vehicle control. The classical MTT assay (3-(4,5-dimethyl thiazolyl-2)-2,5-diphenyltetrazolium bromide) ([68]) was used to measure cellular metabolic activity as an indicator of cell viability, proliferation, and cytotoxicity. Briefly, 0.5 mg/ml MTT solution was dispensed in each well of the 96-well plate and incubated for 4 h. Afterward, the MTT solution was removed and 200 μl of 100% DMSO was added to each well and the plate was placed on a microplate shaker for 5 min to dissolve the formazan granules. The absorbance was measured at 550 nm using a spectrophotometer. DMSO and MTT were purchased from Thermo Fisher Scientific. The darker the solution, the greater the number of viable, metabolically active cells. All experimental compounds were measured using at least 2 to 3 replicates for each and the averaged values from three independent experiments (n = 3) are presented. Cell viability was visualized by fold change of formazan-positive cells normalized to the untreated control and DMSO. Viability reduced below 40% represents the cytotoxic zone. All evaluations were performed using GraphPad Prism 9.5.0 (GraphPad Software, LLC), if other software was not explicitly mentioned.

A549 cells = test: Cytotoxicity on A549 cells (data not shown); type: cell-based
VERO-E6 cells = test: Cytotoxicity on VERO-E6 cells (data not shown); type: cell-based
HCMV UL141 [4] = molecular target: T2, HCMV UL141 (Human cytomegalovirus, UniProt Q6RJQ3); test: biochemical; type: binding; details: for Rmax / koff / kon: UL141 immobilized, substance as analyte
T2 construct: we expressed and purified the full-length recombinant UL141 (amino acids 30–300); made in house
Method: as §1, §2

TRAIL-R2 (Homo sapiens) = TRAIL-R2 (Homo sapiens) (UniProt O14763); test: SPR; details: cited from earlier work
[5] = TRAIL-R2-Fc immobilized, ref ([19])
[6] = UL141-Fc immobilized, TRAIL-R2 in solution, ref ([17])
[7] = UL141 immobilized (ligand), substance in solution (analyte), 1:1 Langmuir model, 25 °C
[8] = 1:1 Langmuir model, listed as cmp 15
[9] = 1:1 Langmuir model, listed as cmp 20
[10] = TRAIL-R2-Fc immobilized, UL141 in solution, ref ([19])

Compound | cytotoxicity (in words) [3] | concentration at which cytotoxicity with apoptotic properties begins (A549 cells) | concentration at which cytotoxicity with apoptotic properties begins (VERO-E6 cells) | Kd (HCMV UL141 [4]; [7]) | Rmax (HCMV UL141 [4]) | koff (HCMV UL141 [4]; 1:1 Langmuir model) | kon (HCMV UL141 [4]; 1:1 Langmuir model) | also measured
UL141 ECD (from UniProt Q6RJQ3) |  |  |  |  |  |  |  | Kd [1]: 0.00596 µM
TRAIL-R2: recombinant human TRAIL death receptor 2 ectodomain (amino acids 58–184), positive control in SPR |  |  |  |  |  |  |  | Rmax (HCMV UL141 [2]; UL141 immobilized, substance as analyte): 872; Kd (HCMV UL141 [2]; full-length UL141 and TRAIL-R2, SPR, read-out: affinity (KD)): 0.00599 µM; Kd (UL141; [5]): 0.00596 µM; koff (UL141; [6]): 0.00564 s⁻¹; kon (UL141; [6]): 264000 M⁻¹ s⁻¹
CCCCCCCCCCCCN1C[C@H](O)[C@H](O)[C@@H]1CO [Compound 9] | unfavorable level of cytotoxicity | ≥ 5000 ng/mL | ≥ 5000 ng/mL |  |  |  |  | 
CC(O)C1C(O)C(O)CN1Cc1ccc(I)cc1 (stereo not shown) [Compound 17] | no cytotoxicity was detected |  |  | 20.3 µM | 20 | 0.0508 s⁻¹ | 2500 M⁻¹ s⁻¹ | koff (HCMV UL141 [4]; 1:1 Langmuir model, listed as cmp 17): (0.51 ± 0.001) × 10^−1 s^−1
CCCCCCCCCCCCCCO[C@@H]1O[C@H](CO)[C@H](O)[C@H](O)[C@H]1O [Compound 3] |  | ≥ 5000 ng/mL | ≥ 5000 ng/mL |  |  |  |  | 
UL141-Fc (from UniProt Q6RJQ3) |  |  |  |  |  |  |  | Kd (TRAIL-R2 (Homo sapiens)): 0.0214 µM
CC(O)C1C(O)C(O)CN1Cc1ccccc1 (stereo not shown) [Compound 15] | no cytotoxicity was detected |  |  | 200 µM | 27 | 0.117 s⁻¹ | 586 M⁻¹ s⁻¹ | Kd (HCMV UL141 [4]; binding to UL141, SPR): 199 µM; koff (HCMV UL141 [4]; [8]): (1.17 ± 0.004) × 10^−1 s^−1; kon (HCMV UL141 [4]; [8]): (0.06 ± 0.002) × 10^4 M^−1s^−1
CCCCCCCCCCCCCCO[C@H]1O[C@H](CO)[C@@H](O)[C@H](O)[C@@H]1O [Compound 5] | unfavorable level of cytotoxicity | ≥ 5000 ng/mL | ≥ 5000 ng/mL |  |  |  |  | 
C[C@H](O)[C@H]1[C@@H](O)[C@@H](O)CN1Cc1ccc(I)cc1 [Compound 14, (2S,3R,4S)-2-((S)-1-hydroxyethyl)-1-(4-iodobenzyl)pyrrolidine-3,4-diol] | no cytotoxicity was detected |  |  | 24 µM | 24 | 0.153 s⁻¹ | 6370 M⁻¹ s⁻¹ | Kd (HCMV UL141 [4]; binding to UL141, SPR): 24 µM; kon (HCMV UL141 [4]; 1:1 Langmuir model, listed as cmp 14): (0.63 ± 0.002) × 10^4 M^−1s^−1
CC1C(O)C(O)CN1Cc1ccc(I)cc1 (stereo not shown) [Compound 20] | no cytotoxicity was detected |  |  | 29.1 µM | 21 | 0.0879 s⁻¹ | 3020 M⁻¹ s⁻¹ | Kd (HCMV UL141 [4]; binding to UL141, SPR): 29 µM; koff (HCMV UL141 [4]; [9]): (0.88 ± 0.015) × 10^−1 s^−1; kon (HCMV UL141 [4]; [9]): (0.30 ± 0.007) × 10^4 M^−1s^−1
CCCCCCCCCCCCCCO[C@@H]1O[C@H](CO)[C@@H](O)[C@H](O)[C@H]1O [Compound 1] |  | ≥ 5000 ng/mL | ≥ 5000 ng/mL |  |  |  |  | 
TRAIL-R2-Fc: TRAIL-R2 recombinantly prepared as an Fc-fusion protein |  |  |  |  |  |  |  | Kd (UL141; [5]): 0.00596 µM; koff (UL141; [10]): 7.21e-05 s⁻¹; kon (UL141; [10]): 12100 M⁻¹ s⁻¹

From publication PMC12140054, “Small glycomimetic antagonists of the cytomegalovirus glycoprotein UL141 prevent binding to TRAIL death receptor” (The Journal of Biological Chemistry, 2025)
